Where a name gives a salt, the structure may show the parent alone. Values belong to the molecule of their own block, whether it stands above or below them.
Assays:
MV4;11 cells = assay: intravenous MV4;11 leukemia model in NOD-SCID mice; assay type: in vivo; conditions: for large infiltrating cells with mitotic figures in bone marrow: H&E-stained sections; for large infiltrating cells with mitotic figures in bone marrow / CD45 positive cells in bone marrow: oral 50-200 mg/kg; for CD45 positive cells in bone marrow: flow cytometry; for survival: oral, 50-200 mg/kg, once daily or 3 times per week
Experimental: In a subset of animals, bone marrow cell suspensions are prepared by flushing mouse femurs with cold sterile PBS, at experimental timepoints (within 90 days of implantation).

L3.6 pL pancreatic tumor = assay: orthotopic human pancreatic cancer L3.6 pL in nude mice; assay type: in vivo; conditions: combination with Taxotere; for survival rate: 4-6 weeks; for effect of the combination in cancer refractory to chemotherapy: tumor cells resistant to Taxotere (MDR cells)
Experimental: A pancreatic tumor which is shown to upregulate expression of PDGF AA, BB, A/B at metastatic sites is used for the in vivo studies. Other tumor systems that are known to upregulate expression of PDGF may also be used such as ovarian cancer, prostate cancer, bone metastasis, or breast cancer bone metastasis.
Tumor cells L3.6 pL derived from pancreatic cancer are injected into the pancreas of nude mice. The tumors are grown into detectable lesions.
Two days later, the mice are killed and the organs with and without tumors harvested, fixed, and immunostained to evaluate expression of PDGF AA, BB, A/B, PDGF-R (α,β) and status of phosphorylation of PDGF-R (α,β) on tumor cells and organ-specific endothelial cells.
The surviving mice are then killed and the size of tumor and metastasis is measured. Fixation of the tissues and staining of the tumor cells are performed. Endothelial cells are examined for division (PCNA), apoptosis (TUNEL), CD31 (endothelial cells). Expression of PDGF AA, BB, A/B, and phosphorylation of PDGF-Rα/β are further studied in these endothelial cells.

[1] = system: Mouse endothelial cells from pancreas; assay: sensitivity of pancreas endothelial cells to Taxotere cytotoxicity; assay type: cell-based; conditions: with Taxotere; for sensitivity of endothelial cells to cytotoxicity mediated by Taxotere: cells at 33° C.
Experimental: Mouse endothelial cells from pancreas are maintained in culture at a temperature 33° C. where they are actively dividing.

[2] = system: blastic phase chronic myelogenous leukemia (CML); conditions: two trials, total of 304 patients; cited from earlier work
accelerated phase CML = conditions: at 24 months; cited from earlier work
Lck = molecular target: T1, Lck (Homo sapiens, UniProt P06239); conditions: literature; cited from earlier work
T1 construct: host or cells: baculovirus system
T1 sequence (P06239 whole entry): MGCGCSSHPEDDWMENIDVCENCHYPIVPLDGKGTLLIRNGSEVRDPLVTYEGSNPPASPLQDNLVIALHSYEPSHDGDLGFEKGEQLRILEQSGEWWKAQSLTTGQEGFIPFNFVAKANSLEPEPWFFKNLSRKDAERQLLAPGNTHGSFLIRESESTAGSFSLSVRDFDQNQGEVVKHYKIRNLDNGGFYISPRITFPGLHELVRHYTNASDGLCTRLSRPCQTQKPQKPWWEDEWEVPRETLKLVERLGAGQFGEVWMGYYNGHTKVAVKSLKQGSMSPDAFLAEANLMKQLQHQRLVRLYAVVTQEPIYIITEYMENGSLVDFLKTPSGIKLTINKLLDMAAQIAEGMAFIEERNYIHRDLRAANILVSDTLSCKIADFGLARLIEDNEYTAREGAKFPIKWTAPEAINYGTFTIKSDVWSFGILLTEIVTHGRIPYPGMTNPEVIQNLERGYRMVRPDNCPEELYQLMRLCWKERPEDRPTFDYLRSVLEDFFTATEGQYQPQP

FYN = FYN (Homo sapiens, UniProt P06241); conditions: literature; cited from earlier work
FYN, sequence (P06241 whole entry, species assumed): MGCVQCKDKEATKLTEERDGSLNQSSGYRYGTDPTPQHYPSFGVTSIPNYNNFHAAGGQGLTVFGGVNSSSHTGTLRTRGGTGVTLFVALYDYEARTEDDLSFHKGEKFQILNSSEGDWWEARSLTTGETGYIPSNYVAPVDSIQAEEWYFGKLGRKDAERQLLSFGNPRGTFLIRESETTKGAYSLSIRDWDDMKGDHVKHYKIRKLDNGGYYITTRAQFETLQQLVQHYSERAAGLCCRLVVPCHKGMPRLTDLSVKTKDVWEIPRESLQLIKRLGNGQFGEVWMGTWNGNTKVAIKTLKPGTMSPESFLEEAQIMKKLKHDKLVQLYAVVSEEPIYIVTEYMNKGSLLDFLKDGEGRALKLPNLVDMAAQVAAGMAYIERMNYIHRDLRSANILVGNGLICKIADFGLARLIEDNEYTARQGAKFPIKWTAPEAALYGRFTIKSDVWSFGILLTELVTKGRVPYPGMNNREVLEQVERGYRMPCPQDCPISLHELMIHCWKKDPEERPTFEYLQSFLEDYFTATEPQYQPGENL

[3] = system: RS4-11 cells (FLT3-wild type); assay: RS4-11 cell growth, luminescence assay at 72 hours; assay type: cell-based, human; conditions: with or without 100 ng/mL FLT3 ligand, FIGS. 5 and 6
[4] = system: AML193 cells (wild type FLT3); assay: AML193 cell growth, luminescence assay at 72 hours; conditions: with or without 100 ng/mL FLT3 ligand, GN963 at concentrations used (30 μM), FIGS. 3 and 4

Structure (SMILES): CC(C)Oc1ccc2nc(Nc3ccccc3)cnc2c1.Cl
melting point: 205 to 210 °C (dec.)

Structure (SMILES): COc1cc2ncc(CNC3CCCCC3)nc2cc1OC (as salt: HCl) [Example 7, Cyclohexyl-(6,7-dimethoxyquinoxalin-2-ylmethyl)-amine]
melting point: 185 to 190 °C (dec.)

Structure (SMILES): COc1cc2ncc(N[C@@H]3CC[C@@H](O)[C@H](C)C3)nc2cc1OC (stereo in doubt) [GN271, (1R,2R,4R)-4-(6,7-dimethoxy-quinoxalin-2-ylamino)-2-methyl-cyclohexanol]
large infiltrating cells with mitotic figures in bone marrow (MV4;11 cells): reduced numbers of large infiltrating cells with mitotic figures | CD45 positive cells in bone marrow (MV4;11 cells): reduced numbers of CD45 positive cells | survival (MV4;11 cells): prolonged survival | survival rate (L3.6 pL pancreatic tumor): higher survival rate | effect of the combination in cancer refractory to chemotherapy (L3.6 pL pancreatic tumor): synergistic effect | resistance of organ-specific endothelial cells to Taxotere increased by pancreatic tumor-conditioned medium [1]: reversal of this increased resistance | sensitivity of endothelial cells to cytotoxicity mediated by Taxotere [1]: increases sensitivity of endothelial cells to cytotoxicity mediated by Taxotere

Structure (SMILES): Oc1ccc2nc(Nc3ccccc3)cnc2c1 [Example 4, 2-Anilino-6-quinoxalinol]
melting point: 211 to 213 °C

Structure (SMILES): c1ccc(Nc2cnc3cc(O[C@@H]4CCOC4)ccc3n2)cc1 [Example 5, Phenyl-[6-(tetrahydrofuran-3-(R)-yl-oxy)quinoxalin-2-yl]amine]
melting point: 173 to 175 °C

Structure (SMILES): COc1cc2ncc(OC3CCCCC3)nc2cc1OC1CCCCC1 [Example 6, 2,7-Bis-cyclohexyloxy-6-methoxy-quinoxaline]
melting point: 75 to 78 °C

Structure (SMILES): COc1cc2cc(NCC(C)(C)CO)cnc2cc1OC [Example 9, 3-(6,7-Dimethoxyquinolin-3-yl-amino)-2,2-dimethyl-propan-1-ol]
melting point: 170 to 173.5 °C

Structure (SMILES): COc1cc2ncc(N[C@@H]3C[C@@H]4C[C@H]3C[C@H]4O)nc2cc1OC [GN804, (1S,2R,4S,5R)-5-(6,7-Dimethoxyquinoxalin-2-ylamino)-Bicyclo[2.2.1]heptan-2-ol]
large infiltrating cells with mitotic figures in bone marrow (MV4;11 cells): reduced numbers of large infiltrating cells with mitotic figures | CD45 positive cells in bone marrow (MV4;11 cells): reduced numbers of CD45 positive cells | survival (MV4;11 cells): prolonged survival | survival rate (L3.6 pL pancreatic tumor): higher survival rate | effect of the combination in cancer refractory to chemotherapy (L3.6 pL pancreatic tumor): synergistic effect | resistance of organ-specific endothelial cells to Taxotere increased by pancreatic tumor-conditioned medium [1]: reversal of this increased resistance | sensitivity of endothelial cells to cytotoxicity mediated by Taxotere [1]: increases sensitivity of endothelial cells to cytotoxicity mediated by Taxotere

Structure (SMILES): Cc1ccc(NC(=O)c2ccc(CN3CCN(C)CC3)cc2)cc1Nc1nccc(-c2cccnc2)n1 [Gleevec, imatinib mesylate]
estimated 1-year survival [2]: under 35% | major cytogenetic response rate [2]: 16% | incidence of disease progression (accelerated phase CML): 50%

Structure (SMILES): Cc1ccc(-c2nn(C(C)(C)C)c3ncnc(N)c23)cc1 [PP1]
LCK inhibitory potency (Lck): low nanomolar potency | FYN inhibitory potency (FYN): low nanomolar potency

Structure (SMILES): CN[C@@H]1C[C@H]2O[C@@](C)([C@@H]1OC)n1c3ccccc3c3c4c(c5c6ccccc6n2c5c31)C(=O)NC4 [staurosporine, reference compound]
effect on RS4-11 cell growth [3]: inhibits RS4-11 cell growth | effect on AML193 cell growth [4]: inhibits AML193 cell growth

Next, values leading:

melting point: 194 to 196 °C
Structure (SMILES): COc1cc2ncc(NC3CCCCC3)nc2cc1N1CCOCC1 [Example 10, Cyclohexyl-(6-methoxy-7-morpholin-4-yl-quinoxalin-2-yl)-amine]

melting point: 85 to 88 °C
Structure (SMILES): COc1cc2ncc(OC3CC4CC3C(O)C4O)nc2cc1OC (centres unmarked) [Example 17, 5-(6,7-Dimethoxyquinoxalin-2-yloxy)-bicyclo [2.2.1]heptane-2,3-diol]

melting point: 152 to 155 °C
Structure (SMILES): COc1cc2ncc(OC3CCC(OC(=O)N(C)C)CC3)nc2cc1OC (centres unmarked) [Example 19, Dimethyl-carbamic acid 4-(6,7-dimethoxyquinoxalin-2-yloxy)-cyclohexyl ester]

melting point: 176 to 177 °C
Structure (SMILES): COc1cc2ncc(N[C@H]3CC[C@H](OC(C)=O)CC3)nc2cc1OC [Example 21, Acetic acid trans-4-(6,7-dimethoxyquinoxalin-2-ylamino)-cyclohexyl ester]

melting point: 184 to 186 °C
Structure (SMILES): COc1cc2ncc(N[C@@H]3C[C@H]4CC[C@@H]3C4)nc2cc1OC [Example 25, (1R,2R,4S)-(+)-Bicyclo[2.2.1]hept-2-yl-(6,7-dimethoxyquinoxalin-2-yl)-amine]

Source: patent US20070197538A1, “Anti-vascular and anti-proliferation methods, therapies, and combinations employing specific tyrosine kinase inhibitors” (priority 2004, published 2007)
